The source of these data is PMC11611271, “Rapid prediction of key residues for foldability by machine learning model enables the design of highly functional libraries with hyperstable constrained peptide scaffolds” (PLOS Computational Biology, 2024).

Where a SMILES comes first, the peptide text is derived from it. Bridges are numbered along the chain shown (N, C = ends).

In one assay the test system is RSP02. Nature of the assay: phage spot ELISA on RSP02. In kind it is binding. Particulars: for S/N: phage spot ELISA signal/noise; for S/N / ELISA: S3 Table sheet RSP02; for ELISA: phage spot ELISA signal. The text has this: (§1) To determine the performance of the libraries for ligand discovery we chose a panel of eight protein targets, which have no structural homology and a wide mass range (Fig 7C). We screened these eight targets with solution panning strategy and two additional plate panning for CD8α/β and CD28, thus ten panning campaigns in total. We consider clones showing spot phage ELISA signal > 0.3 and signal/noise ratio > 2 as positive hits. At least one binding hit was discovered for nine out of the ten panning campaigns, surpassing the success rate of the best DCP scaffolds reported previously. We also obtained the NGS data for these screening and the ranking of clones for their enrichment along the rounds of screening was analyzed and considered the top-ranking clones as potential hits. Based on their sequence diversity we selected 16 potential hits spanning five protein targets for peptide synthesis in their linear form. Seven of these are hits with positive phage ELISA signal and nine were selected based on NGS ranking without spot ELISA available. Subsequently, we conducted in vitro folding experiments on these peptides in various buffers. We observed a strong propensity for spontaneous folding regardless of the buffer condition. All HCP hits tested successfully folded into three-disulfide-containing product within two days in a universal buffer system (PBS, pH 7.4, 50% DMSO) without the need for a redox pair, as shown in Fig 8A. The binding of these folded peptides to their respective target proteins was confirmed using SPR (Table 4 and S1 Data) and binding kinetics are exemplified by the high-affinity peptide 5ji4-CRD7-2 (see Fig 8B). Among seven selected ELISA-positive hits, all of them were successfully synthesized and in vitro folded with three disulfide bonds and five were proven to be validated binders by SPR (Table 4). Nine peptides selected from the NGS ranking were synthesized and folded with the expected number of disulfide bonds and five of them bound to their target with affinities in the μM range as determined by SPR (Table 4). In general, binding affinities for these SPR-validated initial hits are weak, with Kd values in the micromolar range and fast on- and off-rates. There are two exceptions with binding affinities in the nanomolar range.
(§2) The 5ji4 libraries were constructed following the Kunkel mutagenesis method and the solution panning protocol was followed as previously described. After four to five rounds of binding selection, while eluted pool was subjected to NGS analysis, individual phage clones were also picked and analyzed with phage spot ELISA. Positive clones were subjected to SANGER sequencing.
(In general: ELISA stands for enzyme-linked immunosorbent assay.)

The subject of the next assay is CD8α/β. Nature of the assay: phage spot ELISA on CD8α/β. In kind it is binding. Particulars: for S/N: phage spot ELISA signal/noise; for ELISA: phage spot ELISA signal.
Excerpt: as §1, §2

Another assay relates to CD8α. As to the kind of experiment: phage spot ELISA on CD8α. In kind it is binding. Particulars: S3 Table sheet CD8α.
Excerpt: as §1, §2

Assay [1] has as its target T1, CD8α-Fc (UniProt P01732 22-182).
T1 construct: CD8 alpha chain, bought as Fc fusion; captured on a Protein A sensor chip by its Fc; source: bought: R&D, #AVI10927
As to the kind of experiment: SPR; Biacore S200, Fc-fusion target on Sensor Chip Protein A, peptide flowed, single-cycle kinetics, three-fold dilution series from approximately 100 μM, 25°C, 30 μl/min, HBS-EP with 5% DMSO; steady-state equilibrium model. The note with it: both partners purified. On the technique in general: SPR reads the build-up and loss of mass on a sensor chip optically.

Assay [2] has as its target T1, CD8α-Fc. Nature of the assay: SPR; Biacore S200, Fc-fusion target on Sensor Chip Protein A, peptide flowed, single-cycle kinetics, three-fold dilution series from approximately 100 μM, 25°C, 30 μl/min, HBS-EP with 5% DMSO; 1:1 binding (kinetic) model, or no binding seen. The note with it: both partners purified.
For assay [3], the target named is VEGF_(8-109) (UniProt P15692). Nature of the assay: ELISA; phage spot ELISA of individual phage clones after panning; clones with signal > 0.3 and signal/noise ratio > 2 counted as positive hits.
In assay [4] the target is VEGF_(8-109) (UniProt P15692). As to the kind of experiment: SPR; Biacore S200, target on Series S Sensor Chip SA, peptide flowed, single-cycle kinetics, three-fold dilution series from approximately 100 μM, 25°C, 30 μl/min, HBS-EP with 5% DMSO; 1:1 binding (kinetic) model.
The mark [5] stands for this setting: S3 Table sheet CD8αβ-2 (panning campaign 2).
[6] abbreviates: S3 Table sheet CD8αβ-1 (panning campaign 1).

T1 sequence (P01732 22-182): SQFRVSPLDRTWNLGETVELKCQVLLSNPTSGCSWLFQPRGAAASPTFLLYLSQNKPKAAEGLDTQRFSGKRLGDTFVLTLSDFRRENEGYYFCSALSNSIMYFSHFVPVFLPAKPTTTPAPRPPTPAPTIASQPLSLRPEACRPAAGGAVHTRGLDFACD

In the assay with RSP02, “PCECEQPYRDDPDKSSEECERLCRKLGVTNCRVHCG [RSP02 clone 4, phage clone, 5JI4 library, RSP02 panning]” returned a S/N of 1.788 and an ELISA of 0.177. Take “PCECGPYHDDMDKTSSEECERLCRKLGVTNCRVHCG [CD8αβ-2 clone 2, phage clone, 5JI4 library, CD8αβ-2 panning]”: in the assay on CD8α/β (setting [5]), the S/N is reported as 2.4 and the ELISA is 0.296. In the assay with RSP02, “PCECQPMSNWFDMISSEECERLCRKLGVTNCRVHCG [RSP02 clone 3, phage clone, 5JI4 library, RSP02 panning]” yielded a S/N of 0.8496 and an ELISA of 0.192. In the assay with CD8α/β (setting [5]), “PCECDYPVYHDDYKSSEECERLCRKLGVTNCRVHCG [CD8αβ-2 clone 1, phage clone, 5JI4 library, CD8αβ-2 panning]” displayed a S/N of 27.2 and an ELISA of 3.534.

Regarding “PCECIVRWTTKQLESSEECERLCRKLGVTNCRVHCG [RSP02 clone 2, phage clone, 5JI4 library, RSP02 panning]”, in the assay on RSP02, the S/N is on record as 1.515 and the ELISA is listed as 0.2. As for “PCECLMIAVMLVRPSSEECERLCRKLGVTNCRVHCG [CD8αβ-2 clone 3, phage clone, 5JI4 library, CD8αβ-2 panning]”, in the assay on CD8α/β (setting [5]), the S/N was found to be 1.6 and the ELISA was 0.223. On to “PCECDVNGETYTVSSSEECEPLCWMYNEHFCRVHCG [RSP02 clone 6, phage clone, 5JI4 library, RSP02 panning]”, for which, in the assay on RSP02, the S/N is 8.917 and the ELISA worked out at 0.856.

On to `CSCC[C@@H]1NC(=O)[C@H](Cc2c[nH]c3ccccc23)NC(=O)[C@@H]2CSSC[C@H](NC(=O)[C@H](Cc3ccccc3)NC(=O)[C@H](Cc3c[nH]cn3)NC(=O)[C@H](CCC(=O)O)NC(=O)[C@H](CC(N)=O)NC(=O)[C@H](Cc3ccc(O)cc3)NC1=O)C(=O)N[C@@H](CCCNC(=N)N)C(=O)N[C@@H](C(C)C)C(=O)N[C@@H](Cc1c[nH]cn1)C(=O)N[C@H](C(=O)NCC(N)=O)CSSC[C@H](NC(=O)[C@@H]1CCCN1C(C)=O)C(=O)N[C@@H](CCC(=O)O)C(=O)N[C@H]1CSSC[C@H](NC(=O)[C@H](CCC(=O)O)NC(=O)[C@H](CCC(=O)O)NC(=O)[C@H](CO)NC(=O)[C@H](CO)NC(=O)[C@H](CO)NC(=O)[C@H](C(C)C)NC(=O)[C@H]([C@@H](C)O)NC(=O)[C@H](Cc3ccc(O)cc3)NC(=O)[C@H]([C@@H](C)O)NC(=O)[C@H](CCC(=O)O)NC(=O)CNC(=O)[C@H](CC(N)=O)NC(=O)[C@H](C(C)C)NC(=O)[C@H](CC(=O)O)NC1=O)C(=O)N[C@@H](CCC(=O)O)C(=O)N1CCC[C@H]1C(=O)N[C@@H](CC(C)C)C(=O)N2` [5ji4-RSP-1] (Ac-PCECDVNGETYTVSSSEECEPLCWMYNEHFCRVHCG-NH2; disulfide 2-35, 4-19, 23-31; N-terminus and C-terminus assumed), for which the ELISA signal with RSP02 (phage spot ELISA of the clone, positive hit: signal > 0.3 and signal/noise > 2) came out at 0.58. The ELISA s/n in the assay with RSP02 (phage spot ELISA signal/noise ratio) is on record as 5.22. With “PCECTYKDDWQKGASSEECERLCRKLGVTNCRVHCG [RSP02 clone 1, phage clone, 5JI4 library, RSP02 panning]”, in the assay on RSP02, the S/N is listed as 1.427 and the ELISA turned out to be 0.204. Consider “PCECDVHGETYTVSSSEEGTSVPTWLISLCRVHCG [CD8αβ-1 clone 2, phage clone, 5JI4 library, CD8αβ-1 panning]”, for which, in the assay on CD8α/β (setting [6]), the S/N amounted to 34.8 and the ELISA was found to be 3.031. In the assay on RSP02, “PCECVRLSTGRYVKSSEECERLCRKLGVTNCRVHCG [RSP02 clone 5, phage clone, 5JI4 library, RSP02 panning]” displayed a S/N of 1.706 and an ELISA of 0.216.

In the case of “PSECPNPPFEVRTWSSEECERLCRKLGVTNCVCG [CD8αβ-1 clone 1, phage clone, 5JI4 library, CD8αβ-1 panning]”, in the assay with CD8α/β (setting [6]), the S/N came out at 18.5 and the ELISA was 1.938. In the assay with CD8α (phage spot ELISA signal/noise), “PAMLLQRNRPYGLLPEECERLCRKLGVTTACHCG [CD8α clone 1, phage clone, 5JI4 library, CD8α panning]” returned a S/N of 39.9. The molecule also displayed an ELISA in the assay on CD8α (phage spot ELISA signal) of 4.75.

B1: 5ji4-CD8-20 (peptide)
chain: PCECDVNGETYTVSSSEECERLCVWWLSTVCRVPCG
notes: clone from the 5JI4 scaffold phage libraries, picked by NGS ranking; free N- and C-termini; three disulfide bonds; source: synthetic peptide (CSBio), folded in vitro, HPLC purified
As to B1, the affinity in the assay with CD8α-Fc [1], expressed as Kd, was 23 ± 7 µM.

B2: 5ji4-CD8-22 (peptide)
chain: PCECLVTPYKDDYKSSEECERLCVWWLSTVCRVPCG
notes: as for B1
B2 had a dissociation constant Kd in the assay with CD8α-Fc [1] of 76.3 ± 35.7 µM.

B3: 5ji4-CD8-21 (peptide)
chain: PCECVWESFAHLPWSSEECERLCLNWLSSLCRVHCG
notes: as for B1
The molecule B3 came in with a Kd with CD8α-Fc [2] of 6 ± 2.2 µM.

B4: 5ji4-CD8-2 (peptide)
chain: H-PCECVWESFAHLPWSSEECERLCRKLGVTNCVCG-OH
modifications: disulfide (positions not given here); also: three disulfide bonds, pairing not given here
Regarding B4, in the assay with CD8α-Fc [2], the Kd is 4.2 ± 4.3 µM. On to PCECFMYDILVGLASSEECERLCRKLGVTNCRVHCG [5ji4-VEGF-2 displayed on M13 phage], for which, in the assay with VEGF_(8-109) [3], the phage spot ELISA signal came out at 4.71 and the phage spot ELISA signal/noise (s/n) worked out at 44.5. In the assay with VEGF_(8-109) [4], PCECFMYDILVGLASSEECERLCRKLGVTNCRVHCG [5ji4-VEGF-2] gave a Kd of 6.8 µM. For the molecule PCECDVNVETYTVSSSEECKRLCWGFGQSDCRVHCG [5ji4-VEGF-3 displayed on M13 phage], in the assay with VEGF_(8-109) [3], the phage spot ELISA signal came out at 3.07 and the phage spot ELISA signal/noise (s/n) worked out at 32.2.

The molecule PCECDVNVETYTVSSSEECKRLCWGFGQSDCRVHCG [5ji4-VEGF-3] yielded an equilibrium dissociation constant (Kd) with VEGF_(8-109) [4] of 0.12 µM.

As a reminder, the Kd is the free concentration of one partner at which half of the binding sites on the other are occupied at equilibrium, for simple one-to-one binding.
